Assay results: patent US6972296B2, “Carboxylic acid derivatives that inhibit the binding of integrins to their receptors” (Encysive Pharmaceuticals Inc., priority 1999, dated 2005)
Each block holds one compound with its values, some of them ahead of it.

Target: T1, α4β1 integrin (Homo sapiens, UniProt P05556+P13612)
T1 construct: endogenous in cells; host or cells: Ramos cells
Test: Adhesion of calcein-labeled Ramos cells to CS1 (fibronectin) peptide conjugated ovalbumin
Format: cell-based
Conditions: Ramos cell adhesion to CS1 conjugated ovalbumin
In short: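 Calcein AM-labelled Ramos cells (2.5×10^5/well) with compound, up to 100 μM, added to plates coated with CS1 peptide–ovalbumin (0.5 μg/ml) and blocked with 3% BSA. Binding buffer TBS pH 7.5 with 1 mM each MgCl2, CaCl2, MnCl2; 30 min, 37 °C. After washes, adherent cells lysed and read fluorometrically; […].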

[1] = Table 7, dose required to give 50% inhibition
[2] = Table 5, dose required to give 50% inhibition

T1 sequence (P13612 34-1032): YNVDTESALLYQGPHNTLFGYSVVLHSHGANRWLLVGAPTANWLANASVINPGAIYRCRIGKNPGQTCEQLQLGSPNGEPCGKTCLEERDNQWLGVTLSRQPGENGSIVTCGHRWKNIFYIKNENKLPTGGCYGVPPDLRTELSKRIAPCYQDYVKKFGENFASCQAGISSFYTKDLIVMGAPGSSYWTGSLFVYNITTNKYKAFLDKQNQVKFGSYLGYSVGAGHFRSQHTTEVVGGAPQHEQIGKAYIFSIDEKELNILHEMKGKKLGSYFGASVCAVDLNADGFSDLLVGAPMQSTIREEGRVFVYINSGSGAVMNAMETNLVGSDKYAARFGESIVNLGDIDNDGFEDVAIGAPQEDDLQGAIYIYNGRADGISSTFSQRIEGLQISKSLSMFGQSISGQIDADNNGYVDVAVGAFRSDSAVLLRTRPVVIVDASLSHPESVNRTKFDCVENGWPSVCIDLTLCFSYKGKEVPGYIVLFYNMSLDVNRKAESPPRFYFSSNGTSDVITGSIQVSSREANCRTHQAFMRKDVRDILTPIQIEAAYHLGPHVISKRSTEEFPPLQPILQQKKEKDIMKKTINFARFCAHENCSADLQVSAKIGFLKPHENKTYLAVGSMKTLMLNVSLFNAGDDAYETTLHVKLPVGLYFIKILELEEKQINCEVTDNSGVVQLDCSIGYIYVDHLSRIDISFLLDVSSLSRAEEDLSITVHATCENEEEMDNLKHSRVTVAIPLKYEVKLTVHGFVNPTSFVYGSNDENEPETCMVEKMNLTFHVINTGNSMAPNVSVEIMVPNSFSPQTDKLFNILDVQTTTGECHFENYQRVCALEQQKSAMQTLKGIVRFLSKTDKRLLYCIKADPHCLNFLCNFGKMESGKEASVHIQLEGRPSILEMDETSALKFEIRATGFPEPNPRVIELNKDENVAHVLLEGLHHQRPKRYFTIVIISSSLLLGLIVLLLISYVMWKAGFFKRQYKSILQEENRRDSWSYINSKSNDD
T1 sequence (P05556 21-798): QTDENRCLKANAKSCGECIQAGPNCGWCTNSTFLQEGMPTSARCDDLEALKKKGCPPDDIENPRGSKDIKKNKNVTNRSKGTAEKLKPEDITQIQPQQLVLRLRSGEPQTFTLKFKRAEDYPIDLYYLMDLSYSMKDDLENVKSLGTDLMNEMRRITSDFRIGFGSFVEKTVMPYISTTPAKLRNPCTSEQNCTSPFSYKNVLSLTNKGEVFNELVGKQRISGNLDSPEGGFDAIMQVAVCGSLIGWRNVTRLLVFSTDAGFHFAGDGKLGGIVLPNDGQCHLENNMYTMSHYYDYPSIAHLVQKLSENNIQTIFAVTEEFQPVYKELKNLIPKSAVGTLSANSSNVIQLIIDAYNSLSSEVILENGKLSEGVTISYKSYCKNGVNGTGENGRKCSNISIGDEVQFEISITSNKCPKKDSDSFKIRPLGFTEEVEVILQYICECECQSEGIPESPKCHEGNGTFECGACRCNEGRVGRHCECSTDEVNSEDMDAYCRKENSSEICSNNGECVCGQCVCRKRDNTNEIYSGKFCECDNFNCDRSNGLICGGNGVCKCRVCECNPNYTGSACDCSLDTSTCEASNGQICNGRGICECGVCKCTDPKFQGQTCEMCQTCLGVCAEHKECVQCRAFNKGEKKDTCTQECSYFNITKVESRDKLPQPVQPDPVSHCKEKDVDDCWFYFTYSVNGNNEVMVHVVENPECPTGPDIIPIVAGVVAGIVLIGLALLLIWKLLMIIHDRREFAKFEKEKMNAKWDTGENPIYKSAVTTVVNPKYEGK

IC50 [1]: 0.022 µM
Structure (SMILES): Cc1cn(Cc2ccccc2Cl)c(=O)c(NC(=O)NC(CC(=O)O)c2cccc(N3CCCCC3)c2)c1O (centres unmarked)

IC50 (Table 3, 30 minutes at 37° C.): 0.015 µM
Structure (SMILES): COc1ccc([C@H](CC(=O)O)NC(=O)Nc2c(C)ccn(Cc3ccccc3Cl)c2=O)cc1C

IC50 [1]: 0.13 µM
Structure (SMILES): O=C(O)C[C@H](NC(=O)Nc1c(O)c2c(n(Cc3ccccc3Cl)c1=O)CCC2)c1cc(C(F)(F)F)cc(C(F)(F)F)c1

IC50 [2]: 0.006 µM
Structure (SMILES): O=C(O)C[C@H](NC(=O)Nc1c(O)ccn(Cc2ccccc2Cl)c1=O)c1cccc(OC(F)F)c1 [(3S)-3-[({[1-(2-chlorobenzyl)-4-hydroxy-2-oxo-1,2-dihydropyridin-3-yl]amino}carbonyl)amino]-3-[3-(difluoromethoxy)phenyl]propanoic acid]

IC50 [1]: 0.03 µM
Structure (SMILES): CCc1ccc([C@H](CC(=O)O)NC(=O)Nc2c(O)c(C)cn(Cc3ccccc3Cl)c2=O)cc1

IC50 [1]: 0.134 µM
Structure (SMILES): Cc1cn(Cc2ccccc2Cl)c(=O)c(NC(=O)NC(CC(=O)O)c2ccc(S(C)(=O)=O)cc2)c1O (centres unmarked)

IC50 (Table 6, 30 minutes at 37° C.): 0.003 µM
Structure (SMILES): Cn1ccc2cc([C@H](CC(=O)O)NC(=O)Nc3c(O)ccn(Cc4ccccc4Cl)c3=O)ccc21

IC50 [1]: 0.008 µM
Structure (SMILES): O=C(O)C[C@H](NC(=O)Nc1c(O)c2c(n(Cc3ccccc3Cl)c1=O)CCC2)c1cccc(O)c1

IC50 (Table 6, 30 minutes at 37° C.): 0.004 µM
Structure (SMILES): CCOc1cccc([C@H](CC(=O)O)NC(=O)Nc2c(O)c3c(n(Cc4c(C)cccc4Cl)c2=O)CCC3)c1 [(3S)-3-[({[1-(2-chloro-6-methylbenzyl)-4-hydroxy-2-oxo-2,5,6,7-tetrahydro-1H-cyclopenta[b]pyridin-3-yl]amino}carbonyl)amino]-3-(3-ethoxyphenyl)propanoic acid]

IC50 [1]: 0.009 µM
Structure (SMILES): COc1ccc([C@H](CC(=O)O)NC(=O)Nc2c(O)c(C)cn(Cc3ccccc3Cl)c2=O)cc1C

IC50 (Table 6, 30 minutes at 37° C.): 0.014 µM
Structure (SMILES): COc1cc([C@H](CC(=O)O)NC(=O)Nc2c(O)c3ccccc3n(Cc3ccccc3Cl)c2=O)ccc1C

IC50 [1]: 0.267 µM
Structure (SMILES): Cc1ccccc1[C@H](CC(=O)O)NC(=O)Nc1c(O)c(C)cn(Cc2ccccc2Cl)c1=O

IC50 [1]: 0.007 µM
Structure (SMILES): CCOc1ccc(Cl)c(Cl)c1Cn1c2c(c(O)c(NC(=O)N[C@@H](CC(=O)O)c3cccc(OCC4CC4)c3)c1=O)CCC2

IC50 [1]: 0.011 µM
Structure (SMILES): COc1c(C)cc([C@H](CC(=O)O)NC(=O)Nc2c(O)c3c(n(Cc4ccccc4Cl)c2=O)CCC3)cc1C

IC50 (Table 3, 30 minutes at 37° C.): 0.01 µM
Structure (SMILES): Cc1ccc([C@H](CC(=O)O)NC(=O)Nc2c(N)cc(C)n(Cc3ccccc3Cl)c2=O)cc1 [(3S)-3-{[({4-amino-1-[(2-chlorophenyl)methyl]-6-methyl-2-oxo-1,2-dihydro-3-pyridinyl}amino)carbonyl]amino}-3-(4-methylphenyl)propanoic acid]

IC50 [2]: 0.02 µM
Structure (SMILES): CCCc1cn(Cc2ccccc2Cl)c(=O)c(NC(=O)N[C@@H](CC(=O)O)c2ccc(C)cc2)c1O [(3S)-3-[({[1-(2-chlorobenzyl)-4-hydroxy-2-oxo-5-propyl-1,2-dihydropyridin-3-yl]amino}carbonyl)amino]-3-(4-methylphenyl)propanoic acid]

IC50 (Table 6, 30 minutes at 37° C.): 0.005 µM
Structure (SMILES): CCOc1cccc([C@H](CC(=O)O)NC(=O)Nc2c(O)c(C)nn(Cc3ccccc3Cl)c2=O)c1

IC50 [2]: 0.002 µM
Structure (SMILES): CCOc1cccc([C@H](CC(=O)O)NC(=O)Nc2c(O)c(C)cn(Cc3ccccc3Cl)c2=O)c1 [(3S)-3-[({[1-(2-chlorobenzyl)-4-hydroxy-5-methyl-2-oxo-1,2-dihydropyridin-3-yl]amino}carbonyl)amino]-3-(3-ethoxyphenyl)propanoic acid]

IC50 [1]: 0.0013 µM
Structure (SMILES): Cc1cccc(Cl)c1Cn1c2c(c(O)c(NC(=O)N[C@@H](CC(=O)O)c3cccc(N(C)S(C)(=O)=O)c3)c1=O)CCC2 [(3S)-3-{[({1-[(2-chloro-6-methylphenyl)methyl]-4-hydroxy-2-oxo-2,5,6,7-tetrahydro-1H-cyclopenta[b]pyridin-3-yl}amino)carbonyl]amino}-3-{3-[methyl(methylsulfonyl)amino]phenyl}propanoic acid]

IC50 [1]: 0.008 µM
Structure (SMILES): O=C(O)C[C@H](NC(=O)Nc1c(O)c2c(n(Cc3ccccc3Cl)c1=O)CCC2)c1ccccc1

IC50 [1]: 0.004 µM
Structure (SMILES): CCOc1cccc([C@H](CC(=O)O)NC(=O)Nc2c(O)c3c(n(Cc4c(Cl)cccc4OCCOC)c2=O)CCC3)c1

IC50 [2]: 0.003 µM
Structure (SMILES): CCCOc1cccc([C@H](CC(=O)O)NC(=O)Nc2c(O)ccn(Cc3ccccc3Cl)c2=O)c1

IC50 [1]: 0.02 µM
Structure (SMILES): CCC(CC)Oc1cccc([C@H](CC(=O)O)NC(=O)Nc2c(O)c3c(n(Cc4ccccc4Cl)c2=O)CCC3)c1

Further lines, the compound ahead of its results:

Structure (SMILES): Cc1ccc([C@H](CC(=O)O)NC(=O)Nc2cccn(Cc3ccc(C(F)(F)F)cc3F)c2=O)cc1
IC50 (Table 4, 30 minutes at 37° C.): 3 µM

Structure (SMILES): Cc1ccc([C@H](CC(=O)O)NC(=O)Nc2cccn(Cc3nc4ccccc4o3)c2=O)cc1
IC50 (Table 4, 30 minutes at 37° C.): > 10 µM

Structure (SMILES): Cc1ccc([C@H](CC(=O)O)NC(=O)Nc2c(O)c(C)cn(Cc3ccc(S(C)(=O)=O)cc3)c2=O)cc1
IC50 [2]: 0.02 µM

Structure (SMILES): O=C(O)C[C@H](NC(=O)Nc1cccn(Cc2cccs2)c1=O)c1ccc(F)c(C(F)(F)F)c1
IC50 (Table 4, 30 minutes at 37° C.): 0.35 µM

Structure (SMILES): Cc1ccc([C@H](CC(=O)O)NC(=O)Nc2cccn(Cc3ccccc3O)c2=O)cc1
IC50 [2]: 0.2 µM

Structure (SMILES): Cc1ccccc1NC(=O)Nc1ccc(CN2CCC[C@H](NC(=O)N[C@@H](CC(=O)O)c3ccc4c(c3)OCO4)C2=O)cc1
IC50 (Table 2, 30 minutes at 37° C.): 0.0003 µM

Structure (SMILES): O=C(O)C[C@@H](Cc1ccccn1)NC(=O)Nc1c(O)ccn(Cc2ccccc2Cl)c1=O
IC50 [2]: 0.225 µM

Structure (SMILES): Cc1ccccc1[C@H](CC(=O)O)NC(=O)Nc1cccn(Cc2ccccc2Cl)c1=O
IC50 (Table 4, 30 minutes at 37° C.): 3 µM

Structure (SMILES): Cc1ccc([C@H](CC(=O)O)NC(=O)Nc2c(O)c(C)cn(Cc3cc(OC(C)C)ccc3Cl)c2=O)cc1
IC50 (Table 6, 30 minutes at 37° C.): 0.007 µM

Structure (SMILES): COc1cc(OC)cc([C@H](CC(=O)O)NC(=O)Nc2c(O)ccn(Cc3c(Cl)cccc3OC)c2=O)c1 [(3S)-3-[({[1-(2-chloro-6-methoxybenzyl)-4-hydroxy-2-oxo-1,2-dihydropyridin-3-yl]amino}carbonyl)amino]-3-(3,5-dimethoxyphenyl)propanoic acid]
IC50 [2]: 0.0015 µM

Structure (SMILES): Cc1ccc([C@H](CC(=O)O)NC(=O)Nc2cccn(Cc3ccc(Cl)cc3)c2=O)cc1
IC50 (Table 4, 30 minutes at 37° C.): 2 µM

Structure (SMILES): Cc1ccc(Cn2cccc(NC(=O)N[C@@H](CC(=O)O)c3ccc4c(c3)OCO4)c2=O)cc1
IC50 (Table 4, 30 minutes at 37° C.): 1 µM

Structure (SMILES): Cc1ccc([C@H](CC(=O)O)NC(=O)Nc2c(O)ccn(Cc3ccccc3Br)c2=O)cc1
IC50 [2]: 0.015 µM

Structure (SMILES): O=C(O)C[C@H](NC(=O)Nc1cccn(CC2CCCC2)c1=O)c1ccc2c(c1)OCO2 [(3S)-3-(1,3-benzodioxol-5-yl)-3-[({[1-(cyclopentylmethyl)-2-oxo-1,2-dihydro-3-pyridinyl]amino}carbonyl)amino]propanoic acid]
IC50 (Table 4, 30 minutes at 37° C.): 6 µM

Structure (SMILES): O=C(O)C[C@H](NC(=O)Nc1cccn(Cc2ccc(F)cc2)c1=O)c1ccc2c(c1)OCO2
IC50 (Table 4, 30 minutes at 37° C.): 2 µM

Structure (SMILES): CCOc1cccc(Cl)c1Cn1c(C)c(C)c(O)c(NC(=O)N[C@@H](CC(=O)O)c2cccc(OC(C)C)c2)c1=O [(3S)-3-[({[1-(2-chloro-6-ethoxybenzyl)-4-hydroxy-5,6-dimethyl-2-oxo-1,2-dihydropyridin-3-yl]amino}carbonyl)amino]-3-(3-isopropoxyphenyl)propanoic acid]
IC50 [1]: 0.003 µM

Structure (SMILES): Cc1ccc([C@H](CC(=O)O)NC(=O)Nc2c(O)ccn(Cc3cccc(Cl)c3)c2=O)cc1
IC50 [2]: 0.015 µM

Structure (SMILES): Cc1ccc([C@H](CC(=O)O)NC(=O)Nc2c(O)ccn(Cc3c(F)cccc3Cl)c2=O)cc1 [(3S)-3-{[({1-[(2-chloro-6-fluorophenyl)methyl]-4-hydroxy-2-oxo-1,2-dihydro-3-pyridinyl}amino)carbonyl]amino}-3-(4-methylphenyl)propanoic acid]
IC50 (Table 3, 30 minutes at 37° C.): 0.01 µM

Structure (SMILES): COc1cccc(OC)c1-c1ccc([C@H](CC(=O)O)NC(=O)Nc2c(O)c(C)cn(Cc3ccccc3Cl)c2=O)cc1
IC50 [1]: 0.04 µM

Structure (SMILES): CCOc1cccc([C@H](CC(=O)O)NC(=O)Nc2c(O)c(C)nn(Cc3c(Cl)cccc3OCC)c2=O)c1 [(3S)-3-[({[2-(2-chloro-6-ethoxybenzyl)-5-hydroxy-6-methyl-3-oxo-2,3-dihydropyridazin-4-yl]amino}carbonyl)amino]-3-(3-ethoxyphenyl)propanoic acid]
IC50 [1]: 0.003 µM

Structure (SMILES): COc1cccc(Cl)c1Cn1cc(C)c(O)c(NC(=O)N[C@@H](CC(=O)O)c2ccc(C)cc2)c1=O
IC50 (Table 6, 30 minutes at 37° C.): 0.005 µM

Structure (SMILES): COc1ccc(C(CC(=O)O)NC(=O)Nc2c(O)ccn(Cc3ccccc3Cl)c2=O)c2ccccc12 (centres unmarked)
IC50 (Table 6, 30 minutes at 37° C.): 0.16 µM

Structure (SMILES): CCOc1cc([C@H](CC(=O)O)NC(=O)Nc2c(O)c3c(n(Cc4c(C)cccc4Cl)c2=O)CCC3)c(Cl)c(OCC)c1Cl
IC50 [1]: 0.5 µM

Structure (SMILES): Cc1ccc([C@H](CC(=O)O)NC(=O)Nc2cccn(Cc3ccc(F)cc3F)c2=O)cc1
IC50 (Table 4, 30 minutes at 37° C.): 1.3 µM

Structure (SMILES): Cc1ccc([C@H](CC(=O)O)NC(=O)Nc2c(O)ccn(Cc3ccc(Cl)cc3)c2=O)cc1 [(3S)-3-[({[1-(4-chlorobenzyl)-4-hydroxy-2-oxo-1,2-dihydropyridin-3-yl]amino}carbonyl)amino]-3-(4-methylphenyl)propanoic acid]
IC50 [2]: 0.007 µM

Structure (SMILES): Cc1ccc([C@H](CC(=O)O)NC(=O)Nc2c(C)ccn(Cc3c(Cl)cccc3Cl)c2=O)cc1
IC50 (Table 3, 30 minutes at 37° C.): 0.02 µM

Structure (SMILES): O=C(O)C[C@H](NC(=O)N[C@H]1CCCN(Cc2cccs2)C1=O)c1ccc2c(c1)OCO2 [(3S)-3-(1,3-benzodioxol-5-yl)-3-[({[(3S)-2-oxo-1-(2-thienylmethyl)hexahydro-3-pyridinyl]amino}carbonyl)amino]propanoic acid]
IC50 (Table 2, 30 minutes at 37° C.): 0.2 µM

Structure (SMILES): COc1cc(Cn2cc(C)c(O)c(NC(=O)N[C@@H](CC(=O)O)c3ccc(C)cc3)c2=O)cc(OC)c1
IC50 (Table 6, 30 minutes at 37° C.): 0.07 µM

Structure (SMILES): O=C(O)C[C@@H](Cc1cccc2ccccc12)NC(=O)Nc1c(O)ccn(Cc2ccccc2Cl)c1=O
IC50 (Table 6, 30 minutes at 37° C.): 2.5 µM

Structure (SMILES): Cc1ccc([C@H](CC(=O)O)NC(=O)Nc2c(NCc3cccnc3)ccn(Cc3ccccc3Cl)c2=O)cc1
IC50 (Table 3, 30 minutes at 37° C.): 0.02 µM

Structure (SMILES): Cc1ccc([C@H](CC(=O)O)NC(=O)Nc2c(Cl)ccn(Cc3ccccc3Cl)c2=O)cc1
IC50 (Table 3, 30 minutes at 37° C.): 0.02 µM

Structure (SMILES): Cc1cn(Cc2c(C)cccc2Cl)c(=O)c(NC(=O)N[C@@H](CC(=O)O)c2ccc3c(ccn3C)c2)c1O
IC50 [1]: 0.004 µM

Structure (SMILES): Cc1ccc([C@H](CC(=O)O)NC(=O)Nc2c(O)c(C)cn(Cc3cc(F)ccc3Cl)c2=O)cc1
IC50 [1]: 0.005 µM
